Data from PubChem BioAssay (NCI).
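48-hour exposure; five concentrations; linearly interpolated endpoints. TGI: concentration producing complete growth inhibition.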

Columns and labels:
Assay in all cases: NCI anticancer screen, dose series, 48 h
786-0 renal = system: 786-0 renal
A549 NSCLC = system: A549 NSCLC
ACHN renal = system: ACHN renal
CAKI-1 renal = system: CAKI-1 renal
CCRF-CEM leukemia = system: CCRF-CEM leukemia
COLO 205 colon = system: COLO 205 colon
DLD-1 colon = system: DLD-1 colon
DMS 114 small cell lung = system: DMS 114 small cell lung
DMS 273 small cell lung = system: DMS 273 small cell lung
EKVX NSCLC = system: EKVX NSCLC
HCC-2998 colon = system: HCC-2998 colon
HCT-116 colon = system: HCT-116 colon
HCT-15 colon = system: HCT-15 colon
HL-60(TB) leukemia = system: HL-60(TB) leukemia
HOP-18 NSCLC = system: HOP-18 NSCLC
HOP-62 NSCLC = system: HOP-62 NSCLC
HOP-92 NSCLC = system: HOP-92 NSCLC
HT29 colon = system: HT29 colon
IGROV1 ovarian = system: IGROV1 ovarian
K-562 leukemia = system: K-562 leukemia
KM12 colon = system: KM12 colon
KM20L2 colon = system: KM20L2 colon
LOX IMVI melanoma = system: LOX IMVI melanoma
LXFL 529 NSCLC = system: LXFL 529 NSCLC
M14 melanoma = system: M14 melanoma
M19-MEL melanoma = system: M19-MEL melanoma
MALME-3M melanoma = system: MALME-3M melanoma
MOLT-4 leukemia = system: MOLT-4 leukemia
NCI-H226 lung = system: NCI-H226 lung
NCI-H23 lung = system: NCI-H23 lung
NCI-H460 lung = system: NCI-H460 lung
NCI-H522 lung = system: NCI-H522 lung
OVCAR-3 ovarian = system: OVCAR-3 ovarian
OVCAR-5 ovarian = system: OVCAR-5 ovarian
OVCAR-8 ovarian = system: OVCAR-8 ovarian
RPMI-8226 leukemia = system: RPMI-8226 leukemia
RXF 393 renal = system: RXF 393 renal
SF-295 CNS = system: SF-295 CNS
SF-539 CNS = system: SF-539 CNS
SK-MEL-2 melanoma = system: SK-MEL-2 melanoma
SK-MEL-28 melanoma = system: SK-MEL-28 melanoma
SK-MEL-5 melanoma = system: SK-MEL-5 melanoma
SK-OV-3 ovarian = system: SK-OV-3 ovarian
SN12C renal = system: SN12C renal
SNB-19 CNS = system: SNB-19 CNS
SNB-75 CNS = system: SNB-75 CNS
SNB-78 CNS = system: SNB-78 CNS
SR leukemia = system: SR leukemia
SW-620 colon = system: SW-620 colon
TK-10 renal = system: TK-10 renal
U251 CNS = system: U251 CNS
UACC-62 melanoma = system: UACC-62 melanoma
UO-31 renal = system: UO-31 renal
A498 renal = system: A498 renal
OVCAR-4 ovarian = system: OVCAR-4 ovarian
SF-268 CNS = system: SF-268 CNS
UACC-257 melanoma = system: UACC-257 melanoma
XF 498 CNS = system: XF 498 CNS

[N-]=[N+]=NC(CCl)c1cn([C@H]2C[C@H](O)[C@@H](CO)O2)c(=O)[nH]c1=O (some centres not stated)
TGI (786-0 renal): > 100 µM | TGI (A549 NSCLC): > 100 µM | TGI (ACHN renal): > 100 µM | TGI (CAKI-1 renal): > 100 µM | TGI (CCRF-CEM leukemia): > 100 µM | TGI (COLO 205 colon): > 100 µM | TGI (DLD-1 colon): > 100 µM | TGI (DMS 114 small cell lung): > 100 µM | TGI (DMS 273 small cell lung): > 100 µM | TGI (EKVX NSCLC): > 100 µM | TGI (HCC-2998 colon): > 100 µM | TGI (HCT-116 colon): > 100 µM | TGI (HCT-15 colon): > 100 µM | TGI (HL-60(TB) leukemia): > 100 µM | TGI (HOP-18 NSCLC): > 100 µM | TGI (HOP-62 NSCLC): > 100 µM | TGI (HOP-92 NSCLC): > 100 µM | TGI (HT29 colon): > 100 µM | TGI (IGROV1 ovarian): > 100 µM | TGI (K-562 leukemia): > 100 µM | TGI (KM12 colon): > 100 µM | TGI (KM20L2 colon): > 100 µM | TGI (LOX IMVI melanoma): > 100 µM | TGI (LXFL 529 NSCLC): > 100 µM | TGI (M14 melanoma): > 100 µM | TGI (M19-MEL melanoma): > 100 µM | TGI (MALME-3M melanoma): > 100 µM | TGI (MOLT-4 leukemia): > 100 µM | TGI (NCI-H226 lung): > 100 µM | TGI (NCI-H23 lung): > 100 µM | TGI (NCI-H460 lung): > 100 µM | TGI (NCI-H522 lung): > 100 µM | TGI (OVCAR-3 ovarian): > 100 µM | TGI (OVCAR-5 ovarian): > 100 µM | TGI (OVCAR-8 ovarian): > 100 µM | TGI (RPMI-8226 leukemia): > 100 µM | TGI (RXF 393 renal): > 100 µM | TGI (SF-295 CNS): > 100 µM | TGI (SF-539 CNS): > 100 µM | TGI (SK-MEL-2 melanoma): > 100 µM | TGI (SK-MEL-28 melanoma): > 100 µM | TGI (SK-MEL-5 melanoma): > 100 µM | TGI (SK-OV-3 ovarian): > 100 µM | TGI (SN12C renal): > 100 µM | TGI (SNB-19 CNS): > 100 µM | TGI (SNB-75 CNS): > 100 µM | TGI (SNB-78 CNS): > 100 µM | TGI (SR leukemia): > 100 µM | TGI (SW-620 colon): > 100 µM | TGI (TK-10 renal): > 100 µM | TGI (U251 CNS): > 100 µM | TGI (UACC-62 melanoma): > 100 µM | TGI (UO-31 renal): > 100 µM

COC(=O)CC1C[C@H](C#N)N(C(=O)c2ccccc2)C[C@@H]1CC[N+](=O)[O-] (some centres not stated)
TGI (786-0 renal): > 100 µM | TGI (A498 renal): > 100 µM | TGI (A549 NSCLC): > 100 µM | TGI (ACHN renal): > 100 µM | TGI (CCRF-CEM leukemia): > 100 µM | TGI (COLO 205 colon): > 100 µM | TGI (DLD-1 colon): > 100 µM | TGI (DMS 273 small cell lung): > 100 µM | TGI (EKVX NSCLC): > 100 µM | TGI (HCC-2998 colon): > 100 µM | TGI (HCT-116 colon): > 100 µM | TGI (HCT-15 colon): > 100 µM | TGI (HL-60(TB) leukemia): > 100 µM | TGI (HOP-18 NSCLC): > 100 µM | TGI (HOP-62 NSCLC): > 100 µM | TGI (HOP-92 NSCLC): > 100 µM | TGI (HT29 colon): > 100 µM | TGI (IGROV1 ovarian): > 100 µM | TGI (K-562 leukemia): > 100 µM | TGI (KM12 colon): > 100 µM | TGI (KM20L2 colon): > 100 µM | TGI (LOX IMVI melanoma): > 100 µM | TGI (LXFL 529 NSCLC): > 100 µM | TGI (M14 melanoma): > 100 µM | TGI (M19-MEL melanoma): > 100 µM | TGI (MALME-3M melanoma): > 100 µM | TGI (MOLT-4 leukemia): > 100 µM | TGI (NCI-H23 lung): > 100 µM | TGI (NCI-H460 lung): > 100 µM | TGI (OVCAR-3 ovarian): > 100 µM | TGI (OVCAR-4 ovarian): > 100 µM | TGI (OVCAR-5 ovarian): > 100 µM | TGI (OVCAR-8 ovarian): > 100 µM | TGI (RPMI-8226 leukemia): > 100 µM | TGI (RXF 393 renal): > 100 µM | TGI (SF-268 CNS): > 100 µM | TGI (SF-295 CNS): > 100 µM | TGI (SF-539 CNS): > 100 µM | TGI (SK-MEL-2 melanoma): 0.834 µM | TGI (SK-MEL-28 melanoma): > 100 µM | TGI (SK-MEL-5 melanoma): > 100 µM | TGI (SK-OV-3 ovarian): > 100 µM | TGI (SN12C renal): > 100 µM | TGI (SNB-19 CNS): > 100 µM | TGI (SNB-75 CNS): > 100 µM | TGI (SNB-78 CNS): > 100 µM | TGI (SR leukemia): > 100 µM | TGI (SW-620 colon): > 100 µM | TGI (TK-10 renal): > 100 µM | TGI (U251 CNS): > 100 µM | TGI (UACC-257 melanoma): > 100 µM | TGI (UACC-62 melanoma): > 100 µM | TGI (UO-31 renal): > 100 µM | TGI (XF 498 CNS): > 100 µM
